{"source": "the supplement of paper PMC4862054", "conditions_in_all_cases": "incubation time: 72 h", "key": {"BT-474 [1]": {"test_system": "BT-474", "experiment": "normalised response (% of control), CellTox Green; higher = less cell death (100 = DMSO, 0 = benzethonium chloride kill control)", "how_it_was_run": "(§1)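 Plates were normalised with 0.1 % DMSO as 100 and a positive kill control as 0. Breast cancer cell lines in 20 µl suspension had been seeded into 384-well plates with compound at 5 concentrations in 10-fold steps over a compound-specific 10,000-fold range, incubated 72 h, and read for CellTox Green fluorescence (485/520 nm) followed by CellTiter-Glo luminescence. Each value is the normalised signal at a single concentration.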"}, "BT-549 [2]": {"test_system": "BT-549", "experiment": "normalised response (% of control), CellTox Green; higher = less cell death (100 = DMSO, 0 = benzethonium chloride kill control)", "how_it_was_run": "as §1"}, "CAL-120 [3]": {"test_system": "CAL-120", "experiment": "normalised response (% of control), CellTox Green; higher = less cell death (100 = DMSO, 0 = benzethonium chloride kill control)", "how_it_was_run": "as §1"}, "CAL-148 [4]": {"test_system": "CAL-148", "experiment": "normalised response (% of control), CellTox Green; higher = less cell death (100 = DMSO, 0 = benzethonium chloride kill control)", "how_it_was_run": "as §1"}, "CAL-51 [5]": {"test_system": "CAL-51", "experiment": "normalised response (% of control), CellTox Green; higher = less cell death (100 = DMSO, 0 = benzethonium chloride kill control)", "how_it_was_run": "as §1"}, "CAL-85-1 [6]": {"test_system": "CAL-85-1", "experiment": "normalised response (% of control), CellTox Green; higher = less cell death (100 = DMSO, 0 = benzethonium chloride kill control)", "how_it_was_run": "as §1"}, "DU-4475 [7]": {"test_system": "DU-4475", "experiment": "normalised response (% of control), CellTox Green; higher = less cell death (100 = DMSO, 0 = benzethonium chloride kill control)", "how_it_was_run": "as §1"}, "HCC1143 [8]": {"test_system": "HCC1143", "experiment": "normalised response (% of control), CellTox Green; higher = less cell death (100 = DMSO, 0 = benzethonium chloride kill control)", "how_it_was_run": "as §1"}, "HCC1599 [9]": {"test_system": "HCC1599", "experiment": "normalised response (% of control), CellTox Green; higher = less cell death (100 = DMSO, 0 = benzethonium chloride kill control)", "how_it_was_run": "as §1"}, "HCC1937 [10]": {"test_system": "HCC1937", "experiment": "normalised response (% of control), CellTox Green; higher = less cell death (100 = DMSO, 0 = benzethonium chloride kill control)", "how_it_was_run": "as §1"}, "HDQ-P1 [11]": {"test_system": "HDQ-P1", "experiment": "normalised response (% of control), CellTox Green; higher = less cell death (100 = DMSO, 0 = benzethonium chloride kill control)", "how_it_was_run": "as §1"}, "Hs578T [12]": {"test_system": "Hs578T", "experiment": "normalised response (% of control), CellTox Green; higher = less cell death (100 = DMSO, 0 = benzethonium chloride kill control)", "how_it_was_run": "as §1"}, "MCF-10A [13]": {"test_system": "MCF-10A", "experiment": "normalised response (% of control), CellTox Green; higher = less cell death (100 = DMSO, 0 = benzethonium chloride kill control)", "how_it_was_run": "as §1"}, "MDA-MB-231 [14]": {"test_system": "MDA-MB-231", "experiment": "normalised response (% of control), CellTox Green; higher = less cell death (100 = DMSO, 0 = benzethonium chloride kill control)", "how_it_was_run": "as §1"}, "MDA-MB-436 [15]": {"test_system": "MDA-MB-436", "experiment": "normalised response (% of control), CellTox Green; higher = less cell death (100 = DMSO, 0 = benzethonium chloride kill control)", "how_it_was_run": "as §1"}, "MDA-MB-453 [16]": {"test_system": "MDA-MB-453", "experiment": "normalised response (% of control), CellTox Green; higher = less cell death (100 = DMSO, 0 = benzethonium chloride kill control)", "how_it_was_run": "as §1"}, "MDA-MB-468 [17]": {"test_system": "MDA-MB-468", "experiment": "normalised response (% of control), CellTox Green; higher = less cell death (100 = DMSO, 0 = benzethonium chloride kill control)", "how_it_was_run": "as §1"}, "MFM-223 [18]": {"test_system": "MFM-223", "experiment": "normalised response (% of control), CellTox Green; higher = less cell death (100 = DMSO, 0 = benzethonium chloride kill control)", "how_it_was_run": "as §1"}, "BT-474 [19]": {"test_system": "BT-474", "experiment": "normalised response (% of control), CellTiter-Glo; higher = more viable cells (100 = DMSO, 0 = benzethonium chloride kill control)", "description": "(§2)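 DSRT, 72 h incubation, CellTox Green / CellTiter-Glo readout. Signal is normalised to DMSO and benzethonium chloride controls. Value is the normalised response at the highest dose.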"}, "BT-549 [20]": {"test_system": "BT-549", "experiment": "normalised response (% of control), CellTiter-Glo; higher = more viable cells (100 = DMSO, 0 = benzethonium chloride kill control)", "description": "as §2"}, "CAL-120 [21]": {"test_system": "CAL-120", "experiment": "normalised response (% of control), CellTiter-Glo; higher = more viable cells (100 = DMSO, 0 = benzethonium chloride kill control)", "description": "as §2"}, "CAL-148 [22]": {"test_system": "CAL-148", "experiment": "normalised response (% of control), CellTiter-Glo; higher = more viable cells (100 = DMSO, 0 = benzethonium chloride kill control)", "description": "as §2"}, "CAL-51 [23]": {"test_system": "CAL-51", "experiment": "normalised response (% of control), CellTiter-Glo; higher = more viable cells (100 = DMSO, 0 = benzethonium chloride kill control)", "description": "as §2"}, "CAL-85-1 [24]": {"test_system": "CAL-85-1", "experiment": "normalised response (% of control), CellTiter-Glo; higher = more viable cells (100 = DMSO, 0 = benzethonium chloride kill control)", "description": "as §2"}, "DU-4475 [25]": {"test_system": "DU-4475", "experiment": "normalised response (% of control), CellTiter-Glo; higher = more viable cells (100 = DMSO, 0 = benzethonium chloride kill control)", "description": "as §2"}, "HCC1143 [26]": {"test_system": "HCC1143", "experiment": "normalised response (% of control), CellTiter-Glo; higher = more viable cells (100 = DMSO, 0 = benzethonium chloride kill control)", "description": "as §2"}, "HCC1599 [27]": {"test_system": "HCC1599", "experiment": "normalised response (% of control), CellTiter-Glo; higher = more viable cells (100 = DMSO, 0 = benzethonium chloride kill control)", "description": "as §2"}, "HCC1937 [28]": {"test_system": "HCC1937", "experiment": "normalised response (% of control), CellTiter-Glo; higher = more viable cells (100 = DMSO, 0 = benzethonium chloride kill control)", "description": "as §2"}, "HDQ-P1 [29]": {"test_system": "HDQ-P1", "experiment": "normalised response (% of control), CellTiter-Glo; higher = more viable cells (100 = DMSO, 0 = benzethonium chloride kill control)", "description": "as §2"}, "Hs578T [30]": {"test_system": "Hs578T", "experiment": "normalised response (% of control), CellTiter-Glo; higher = more viable cells (100 = DMSO, 0 = benzethonium chloride kill control)", "description": "as §2"}, "MCF-10A [31]": {"test_system": "MCF-10A", "experiment": "normalised response (% of control), CellTiter-Glo; higher = more viable cells (100 = DMSO, 0 = benzethonium chloride kill control)", "description": "as §2"}, "MDA-MB-231 [32]": {"test_system": "MDA-MB-231", "experiment": "normalised response (% of control), CellTiter-Glo; higher = more viable cells (100 = DMSO, 0 = benzethonium chloride kill control)", "description": "as §2"}, "MDA-MB-436 [33]": {"test_system": "MDA-MB-436", "experiment": "normalised response (% of control), CellTiter-Glo; higher = more viable cells (100 = DMSO, 0 = benzethonium chloride kill control)", "description": "as §2"}, "MDA-MB-453 [34]": {"test_system": "MDA-MB-453", "experiment": "normalised response (% of control), CellTiter-Glo; higher = more viable cells (100 = DMSO, 0 = benzethonium chloride kill control)", "description": "as §2"}, "MDA-MB-468 [35]": {"test_system": "MDA-MB-468", "experiment": "normalised response (% of control), CellTiter-Glo; higher = more viable cells (100 = DMSO, 0 = benzethonium chloride kill control)", "description": "as §2"}, "MFM-223 [36]": {"test_system": "MFM-223", "experiment": "normalised response (% of control), CellTiter-Glo; higher = more viable cells (100 = DMSO, 0 = benzethonium chloride kill control)", "description": "as §2"}, "SK-BR-3": {"test_system": "SK-BR-3", "experiment": "normalised response (% of control), CellTiter-Glo; higher = more viable cells (100 = DMSO, 0 = benzethonium chloride kill control)", "description": "as §2"}}}
{"compound": "COc1cc(Nc2ncc(F)c(Nc3ccc4c(n3)N(COP(=O)(O)O)C(=O)C(C)(C)O4)n2)cc(OC)c1OC", "note": "[Fostamatinib] (2500 nM)", "values": [{"measurement": "normalised response", "setting": "BT-474 [1]", "result": 77.7, "unit": "%"}, {"measurement": "normalised response", "setting": "BT-549 [2]", "result": 64.8, "unit": "%"}, {"measurement": "normalised response", "setting": "CAL-120 [3]", "result": 67.8, "unit": "%"}, {"measurement": "normalised response", "setting": "CAL-148 [4]", "result": 67.6, "unit": "%"}, {"measurement": "normalised response", "setting": "CAL-51 [5]", "result": 31.6, "unit": "%"}, {"measurement": "normalised response", "setting": "CAL-85-1 [6]", "result": -13.8, "unit": "%"}, {"measurement": "normalised response", "setting": "DU-4475 [7]", "result": 90.3, "unit": "%"}, {"measurement": "normalised response", "setting": "HCC1143 [8]", "result": 100, "unit": "%"}, {"measurement": "normalised response", "setting": "HCC1599 [9]", "result": 92.7, "unit": "%"}, {"measurement": "normalised response", "setting": "HCC1937 [10]", "result": 74.1, "unit": "%"}, {"measurement": "normalised response", "setting": "HDQ-P1 [11]", "result": 73.6, "unit": "%"}, {"measurement": "normalised response", "setting": "Hs578T [12]", "result": 19.2, "unit": "%"}, {"measurement": "normalised response", "setting": "MCF-10A [13]", "result": 69, "unit": "%"}, {"measurement": "normalised response", "setting": "MDA-MB-231 [14]", "result": -11.9, "unit": "%"}, {"measurement": "normalised response", "setting": "MDA-MB-436 [15]", "result": 86.6, "unit": "%"}, {"measurement": "normalised response", "setting": "MDA-MB-453 [16]", "result": 89.1, "unit": "%"}, {"measurement": "normalised response", "setting": "MDA-MB-468 [17]", "result": 37.4, "unit": "%"}, {"measurement": "normalised response", "setting": "MFM-223 [18]", "result": 87.5, "unit": "%"}, {"measurement": "normalised response", "setting": "BT-474 [19]", "result": 27, "unit": "%"}, {"measurement": "normalised response", "setting": "BT-549 [20]", "result": 39.7, "unit": "%"}, {"measurement": "normalised response", "setting": "CAL-120 [21]", "result": 43.7, "unit": "%"}, {"measurement": "normalised response", "setting": "CAL-148 [22]", "result": 106, "unit": "%"}, {"measurement": "normalised response", "setting": "CAL-51 [23]", "result": 50.8, "unit": "%"}, {"measurement": "normalised response", "setting": "CAL-85-1 [24]", "result": 30.5, "unit": "%"}, {"measurement": "normalised response", "setting": "DU-4475 [25]", "result": 65.1, "unit": "%"}, {"measurement": "normalised response", "setting": "HCC1143 [26]", "result": 63.2, "unit": "%"}, {"measurement": "normalised response", "setting": "HCC1599 [27]", "result": 66.8, "unit": "%"}, {"measurement": "normalised response", "setting": "HCC1937 [28]", "result": 54, "unit": "%"}, {"measurement": "normalised response", "setting": "HDQ-P1 [29]", "result": 26.1, "unit": "%"}, {"measurement": "normalised response", "setting": "Hs578T [30]", "result": 15.1, "unit": "%"}, {"measurement": "normalised response", "setting": "MCF-10A [31]", "result": 15.1, "unit": "%"}, {"measurement": "normalised response", "setting": "MDA-MB-231 [32]", "result": 20.3, "unit": "%"}, {"measurement": "normalised response", "setting": "MDA-MB-436 [33]", "result": 67.5, "unit": "%"}, {"measurement": "normalised response", "setting": "MDA-MB-453 [34]", "result": 64.8, "unit": "%"}, {"measurement": "normalised response", "setting": "MDA-MB-468 [35]", "result": 64.4, "unit": "%"}, {"measurement": "normalised response", "setting": "MFM-223 [36]", "result": 37.8, "unit": "%"}, {"measurement": "normalised response", "setting": "SK-BR-3", "result": 60.3, "unit": "%"}]}
